Results: US20250235460A1, “COMBINATION THERAPY USING GLUCOSE-DEPENDENT INSULINOTROPIC POLYPEPTIDE RECEPTOR ANTAGONIST COMPOUNDS AND GLP-1 RECEPTOR AGONIST COMPOUNDS” (Pfizer Inc., priority 2024, published 2025)
Structures can show the parent of a compound that is named as a salt. Where two headings read alike, the source gives them in different places.

Tests used:
[1] = target: human GLP-1R (Homo sapiens, UniProt P43220, G168S); assay: CHO GLP-1R Clone H6 cAMP HTRF agonist assay (Assay 1, high receptor density); type: cell-based; details: for EC50: CHO GLP-1R clone H6, cAMP HTRF, geometric mean; for Emax: read-out: Assay 1 Emax (%)
Chain of human GLP-1R (Homo sapiens, UniProt P43220, G168S) (P43220 24-463 G168S): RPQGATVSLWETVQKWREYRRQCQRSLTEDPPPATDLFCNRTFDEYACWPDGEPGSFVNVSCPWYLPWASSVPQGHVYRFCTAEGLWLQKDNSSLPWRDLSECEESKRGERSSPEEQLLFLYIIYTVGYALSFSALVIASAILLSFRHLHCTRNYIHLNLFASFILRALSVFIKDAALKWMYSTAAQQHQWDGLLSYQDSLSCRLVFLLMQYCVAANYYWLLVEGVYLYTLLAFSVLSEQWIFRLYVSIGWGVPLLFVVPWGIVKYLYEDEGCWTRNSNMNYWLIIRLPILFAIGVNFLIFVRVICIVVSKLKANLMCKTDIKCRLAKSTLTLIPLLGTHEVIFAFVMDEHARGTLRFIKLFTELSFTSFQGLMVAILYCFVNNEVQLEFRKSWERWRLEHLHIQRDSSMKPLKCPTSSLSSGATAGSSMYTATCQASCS
Outline: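 Averaging differs by parameter: a geometric mean for EC50 and an arithmetic mean for Emax, each over the stated replicate number.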

[2] = target: human GLP-1R (Homo sapiens, UniProt P43220, L260F); assay: CHO GLP-1R Clone C6 cAMP HTRF agonist assay (Assay 2, low receptor density); type: cell-based; details: for EC50: CHO GLP-1R clone C6, cAMP HTRF, geometric mean; for Emax: CHO GLP-1R clone C6, arithmetic mean, relative to saturating GLP-1 (1 μM)
Chain of human GLP-1R (Homo sapiens, UniProt P43220, L260F) (P43220 24-463 L260F): as the sequence (P43220 24-463 G168S) above, with S145G, L237F counted along it
Description: In Table 5 and Table 6, assay data are presented to two (2) significant figures as the geometric mean (EC50s) and arithmetic mean (Emax) based on the number of replicates listed (Number). A blank cell means there was no data for that Example or the Emax was not calculated.

[3] = CHO GLP-1R clone H6, arithmetic mean, relative to saturating GLP-1 (1 μM)

Row | Structure (SMILES) | EC50 [1] [µM] | Emax [1, 3] [%] | EC50 [2] [µM] | Emax [2] [%] | Emax [1] [%]
1 | COCCn1c(CN2CCN(c3cccc(OCc4ccc(Cl)cc4F)n3)[C@@H](CO)C2)nc2ccc(C(=O)O)cc21 [Compound 185B, 2-{[(3R)-4-{6-[(4-chloro-2-fluorobenzyl)oxy]pyridin-2-yl}-3-(hydroxymethyl)piperazin-1-yl]methyl}-1-(2-methoxyethyl)-1H-benzimidazole-6-carboxylic acid] | 0.00034 | 89 | 0.0022 | 97 | –
2 | CCCn1cnnc1Cn1c(CN2CCC(c3cccc(OCc4ccc(Cl)cc4F)n3)CC2)nc2ccc(C(=O)O)cc21 [Compound 187B, 2-[(4-{6-[(4-chloro-2-fluorobenzyl)oxy]pyridin-2-yl}piperidin-1-yl)methyl]-1-[(4-propyl-4H-1,2,4-triazol-3-yl)methyl]-1H-benzimidazole-6-carboxylic acid] | 0.049 | 71 | 2.1 | – | –
3 | Cn1cnnc1Cn1c(CN2CCC(c3cccc(OCc4ccc(C#N)cc4F)n3)CC2)nc2ccc(C(=O)O)cc21 [Compound 188B, 2-[(4-{6-[(4-cyano-2-fluorobenzyl)oxy]pyridin-2-yl}piperidin-1-yl)methyl]-1-[(4-methyl-4H-1,2,4-triazol-3-yl)methyl]-1H-benzimidazole-6-carboxylic acid] | 0.0024 | 71 | 0.038 | 83 | –
4 | CO[C@H]1C[C@@H](Cn2c(CN3CCC(c4cccc(OCc5ccc(Cl)cc5F)n4)CC3)nc3ccc(C(=O)O)cc32)C1 [Compound 195B, 2-[(4-{6-[(4-chloro-2-fluorobenzyl)oxy]pyridin-2-yl}piperidin-1-yl)methyl]-1-[(cis-3-methoxycyclobutyl)methyl]-1H-benzimidazole-6-carboxylic acid] | 0.11 | 68 | 4.4 | 110 | –
5 | COC[C@@H]1C[C@H]1Cn1c(CN2CCC(c3cccc(OCc4ccc(Cl)cc4F)n3)CC2)nc2ccc(C(=O)O)cc21 [Compound 197B, 2-[(4-{6-[(4-chloro-2-fluorobenzyl)oxy]pyridin-2-yl}piperidin-1-yl)methyl]-1-{[(1R,2R)-2-(methoxymethyl)cyclopropyl]methyl}-1H-benzimidazole-6-carboxylic acid] | 0.0081 | 74 | 0.22 | 93 | –
6 | Cn1c(CN2CCC(c3cccc(OCc4ccc(Cl)cc4F)n3)CC2)nc2ccc(C(=O)O)nc21 [Compound 199B, 2-((4-(6-((4-Chloro-2-fluorobenzyl)oxy)pyridin-2-yl)piperidin-1-yl)methyl)-3-methyl-3H-imidazo[4,5-b]pyridine-5-carboxylic acid hydrochloride] | 0.0017 | – | 0.045 | 83 | 67
7 | O=C(O)c1cc2c(cn1)nc(CN1CCC(c3cccc(OCc4ccc(Cl)cc4F)n3)CC1)n2C[C@@H]1CCO1 [Compound 203B, 2-[(4-{6-[(4-chloro-2-fluorobenzyl)oxy]pyridin-2-yl}piperidin-1-yl)methyl]-1-[(2S)-oxetan-2-ylmethyl]-1H-imidazo[4,5-c]pyridine-6-carboxylic acid] | > 15 | 98 | > 20 | – | –
8 | O=C(O)c1cc2c(cn1)nc(CN1CCC(c3cccc(OCc4ccc(Cl)cc4F)n3)CC1)n2Cc1ncco1 [Compound 204B, 2-[(4-{6-[(4-chloro-2-fluorobenzyl)oxy]pyridin-2-yl}piperidin-1-yl)methyl]-1-(1,3-oxazol-2-ylmethyl)-1H-imidazo[4,5-c]pyridine-6-carboxylic acid] | 0.018 | 88 | 0.4 | 100 | –
9 | COCCn1c(CN2CCC(c3cccc(OCc4ccc(Cl)cc4F)n3)CC2)nc2cnc(C(=O)O)cc21 [Compound 205B, 2-[(4-{6-[(4-chloro-2-fluorobenzyl)oxy]pyridin-2-yl}piperidin-1-yl)methyl]-1-(2-methoxyethyl)-1H-imidazo[4,5-c]pyridine-6-carboxylic acid] | 0.0057 | 67 | 0.1 | 79 | –
10 | Cn1c(CN2CCC(c3cccc(OCc4ccc(Cl)cc4F)n3)CC2)nc2cc(F)c(C(=O)O)cc21 [Compound 206B, 2-[(4-{6-[(4-chloro-2-fluorobenzyl)oxy]pyridin-2-yl}piperidin-1-yl)methyl]-5-fluoro-1-methyl-1H-benzimidazole-6-carboxylic acid] | 0.038 | – | 0.76 | 91 | –
11 | COCCn1c(CN2CCC(c3cccc(OCc4ccc(Cl)cc4F)n3)CC2)nc2ncc(C(=O)O)nc21 [Compound 207B, 2-[(4-{6-[(4-chloro-2-fluorobenzyl)oxy]pyridin-2-yl}piperidin-1-yl)methyl]-1-(2-methoxyethyl)-1H-imidazo[4,5-b]pyrazine-6-carboxylic acid] | 0.0057 | 78 | 0.13 | 94 | –
12 | COCCn1c(CN2CCC(c3cccc(OCc4ccc(Cl)cc4F)n3)CC2)nc2ncc(C(=O)O)c(C)c21 [Compound 208B, 2-[(4-{6-[(4-chloro-2-fluorobenzyl)oxy]pyridin-2-yl}piperidin-1-yl)methyl]-1-(2-methoxyethyl)-7-methyl-1H-imidazo[4,5-b]pyridine-6-carboxylic acid] | 0.0017 | 82 | 0.041 | 99 | –
13 | Cc1nc2nc(CN3CCC(c4cccc(OCc5ccc(Cl)cc5F)n4)CC3)n(C)c2cc1C(=O)O [Compound 209B, 2-[(4-{6-[(4-chloro-2-fluorobenzyl)oxy]pyridin-2-yl}piperidin-1-yl)methyl]-1,5-dimethyl-1H-imidazo[4,5-b]pyridine-6-carboxylic acid] | 0.007 | 59 | 0.19 | 80 | –
14 | COCCn1c(CN2CCC(c3cccc(OCc4ccc(C#N)cc4)n3)CC2)nc2cc(F)c(C(=O)O)cc21 [Compound 211B, 2-[(4-{6-[(4-cyanobenzyl)oxy]pyridin-2-yl}piperidin-1-yl)methyl]-5-fluoro-1-(2-methoxyethyl)-1H-benzimidazole-6-carboxylic acid] | 0.05 | 81 | 0.87 | 83 | –
15 | C[C@H]1CN(c2cccc(OCc3ccc(C#N)cc3F)n2)CCN1Cc1nc2ccc(C(=O)O)nc2n1Cc1ncco1 [Compound 215B, 2-{[(2S)-4-{6-[(4-cyano-2-fluorobenzyl)oxy]pyridin-2-yl}-2-methylpiperazin-1-yl]methyl}-3-(1,3-oxazol-2-ylmethyl)-3H-imidazo [4,5-b]pyridine-5-carboxylic acid] | 0.0034 | 73 | – | 89 | –
16 | O=C(O)c1ccc2nc(CN3CCC(c4cccc(OCc5ccc(Cl)cc5F)n4)CC3)n(C[C@H]3CCO3)c2n1 [Compound 216B, 2-[(4-{6-[(4-chloro-2-fluorobenzyl)oxy]pyridin-2-yl}piperidin-1-yl)methyl]-3-[(2R)-oxetan-2-ylmethyl]-3H-imidazo[4,5-b]pyridine-5-carboxylic acid] | 0.00047 | 77 | 0.005 | 94 | –
17 | COCCn1c(CN2CCC(c3cccc(OCc4ccc(C)cc4)n3)CC2)nc2ccc(C(=O)O)cc21 [Compound 217B, Ammonium 2-((4-(6-((4-Methylbenzyl)oxy)pyridin-2-yl)piperidin-1-yl)methyl)-1-(2-methoxyethyl)-1H-benzo[d]imidazole-6-carboxylate] | 0.0015 | 73 | 0.024 | 91 | –
18 | COCCn1c(CN2CCC(c3cccc(OCc4ccc(C#N)c(C)c4)n3)CC2)nc2ccc(C(=O)O)cc21 [Compound 218B, 2-((4-(6-((4-cyano-3-methylbenzyl)oxy)pyridin-2-yl)piperidin-1-yl)methyl)-1-(2-methoxyethyl)-1H-benzo[d]imidazole-6-carboxylic acid] | 0.0015 | – | 0.029 | 95 | –
19 | COCCn1c(CN2CCC(c3cccc(OCc4cc(F)c(Cl)cc4F)n3)CC2)nc2ccc(C(=O)O)cc21 [Compound 219B, 2-((4-(6-((4-chloro-2,5-difluorobenzyl)oxy)pyridin-2-yl)piperidin-1-yl)methyl)-1-(2-methoxyethyl)-1H-benzo[d]imidazole-6-carboxylic acid] | 0.0003 | 93 | 0.0038 | 93 | –
20 | COCCn1c(CN2CCC(c3cccc(OCc4c(F)cc(Cl)cc4F)n3)CC2)nc2ccc(C(=O)O)cc21 [Compound 220B, 2-((4-(6-((4-chloro-2,6-difluorobenzyl)oxy)pyridin-2-yl)piperidin-1-yl)methyl)-1-(2-methoxyethyl)-1H-benzo[d]imidazole-6-carboxylic acid] | 0.00033 | 82 | 0.013 | 110 | –
21 | Cn1c(CN2CCC(c3cccc(OCc4ccccc4)n3)CC2)nc2ccc(C(=O)O)cc21 [Compound 221B, 2-((4-(6-(Benzyloxy)pyridin-2-yl)piperidin-1-yl)methyl)-1-methyl-1H-benzo[d]imidazole-6-carboxylic acid] | 0.0034 | 86 | 0.023 | 110 | –
22 | Cn1c(CN2CCC(c3cccc(OCc4ccc(Cl)cc4)n3)CC2)nc2ccc(C(=O)O)cc21 [Compound 225B, 2-[(4-{6-[(4-chlorobenzyl)oxy]pyridin-2-yl}piperidin-1-yl)methyl]-1-methyl-1H-benzimidazole-6-carboxylic acid] | 0.012 | 75 | 0.14 | 82 | –
